“And” between values parts separate entries of the source, which are not always exact repeats. Equal entries are not always repeated.
How the values were obtained:
OEP21 [1] = target: T1, OEP21 (Pisum sativum, UniProt Q9SM57); assay: Trypsin cleavage of recombinant OEP21 in liposomes; set-up: made in house; species or system garden pea; conditions: 10 µM OEP21 in liposomes; 5 mM metabolite
Experimental: Sample aliquots were quenched by addition of 1 mM PMSF at the indicated time points and were analyzed by SDS–PAGE.

OEP21 [2] = target: T1, OEP21; conditions: Cu^2+ oxidation then BS^3; 5 mM metabolite
OEP21 wt = target: T2, OEP21 wt (Pisum sativum, UniProt Q9SM57); assay: NMR titrations (2D-[15N,1H]-TROSY) of OEP21 with metabolites; type: binding, garden pea
T2 construct: made in house

OEP21 [3] = target: T1, OEP21; assay: CD-detected thermal melting of OEP21 in presence of metabolites; type: binding, garden pea; set-up: made in house; conditions: for raw CD / rel CD: 500 uM; for Melting point: ED Fig. 4a

## O=C[C@H](O)COP(=O)(O)O [GAP, D-glyceraldehyde-3-phosphate]
OEP21 [1]
  effect on trypsin digestion of L5 (in words): slightly protected L5 from proteolytic digestion
OEP21 [2]
  effect on enhanced oligomerization of Cys109-oxidized OEP21 (in words): reduced this process
OEP21 wt; KD GAP - Loop5, Loop5, individual KDs
  Kd: 2700 µM and 4360 µM and 2480 µM
OEP21 wt; KD GAP - Loop5, Mean, Loop5, mean
  Kd: 3180 µM
OEP21 wt; KD, NMR, Fig. 3b
  Kd: ~150 µM
OEP21 wt; KDs GAP+Mg, Mean, with Mg, mean
  Kd: 709 µM
OEP21 wt; KDs GAP+Mg, with Mg, individual KDs
  Kd: 310 µM and 690 µM and 450 µM and 960 µM and 920 µM and 1170 µM and 470 µM and 980 µM and 750 µM and 710 µM and 670 µM
OEP21 wt; KDs OEP21wt + GAP, Mean, OEP21wt, mean, unit inferred
  Kd: 152 µM
OEP21 wt; KDs OEP21wt + GAP, OEP21wt, individual KDs, unit inferred
  Kd: 154 µM and 180 µM and 186 µM and 146 µM and 177 µM and 143 µM and 138 µM and 137 µM and 127 µM and 149 µM
OEP21 wt; NMR, Fig. 3h, addition of Mg^2+
  effect of Mg^2+ on binding affinity (in words): decreased the binding affinity to a similar extent
OEP21 wt; affinity of residues in L5, NMR, Fig. 3h
  Kd: ~3000 µM
OEP21 wt; individual determinations KD1-KD12, relative to ATP pH7
  fold increase in Kd: 18.8725 and 22.0588 and 22.7941 and 17.8922 and 21.6912 and 17.5245 and 16.9118 and 16.7892 and 15.5637 and 18.2598
OEP21 wt; mean, relative to ATP pH7
  fold increase in Kd, mean values: 18.7
OEP21 [3]; 22.5 °C
  raw CD: -23.3707
  rel CD: 0.97
OEP21 [3]; 23 °C
  raw CD: -23.5919
  rel CD: 0.9806
OEP21 [3]; 23.5 °C
  raw CD: -24.399
  rel CD: 1.019
OEP21 [3]; 24 °C
  raw CD: -24.3596
  rel CD: 1.017
OEP21 [3]; 25 °C
  raw CD: -24.3798
  rel CD: 1.018
OEP21 [3]; 26 °C
  raw CD: -24.239
  rel CD: 1.011
OEP21 [3]; 27 °C
  raw CD: -24.36
  rel CD: 1.017
OEP21 [3]; 28 °C
  raw CD: -24.2279
  rel CD: 1.011
OEP21 [3]; 28.5 °C
  raw CD: -24.3095
  rel CD: 1.015
OEP21 [3]; 29 °C
  raw CD: -23.5401
  rel CD: 0.9781
OEP21 [3]; 30 °C
  raw CD: -23.385
  rel CD: 0.9707
OEP21 [3]; 31 °C
  raw CD: -24.0555
  rel CD: 1.003
OEP21 [3]; 32 °C
  raw CD: -24.3068
  rel CD: 1.015
OEP21 [3]; 33 °C
  raw CD: -24.4089
  rel CD: 1.019
OEP21 [3]; 34 °C
  raw CD: -23.805
  rel CD: 0.9907
OEP21 [3]; 35 °C
  raw CD: -24.5097
  rel CD: 1.024
OEP21 [3]; 36 °C
  raw CD: -24.0481
  rel CD: 1.002
OEP21 [3]; 37 °C
  raw CD: -23.8199
  rel CD: 0.9914
OEP21 [3]; 38 °C
  raw CD: -23.8252
  rel CD: 0.9917
OEP21 [3]; 39 °C
  raw CD: -23.7051
  rel CD: 0.986
OEP21 [3]; 68 °C
  raw CD: -6.585
  rel CD: 0.1707
OEP21 [3]; 68.5 °C
  raw CD: -6.193
  rel CD: 0.1521
OEP21 [3]; 69 °C
  raw CD: -6.288
  rel CD: 0.1566
OEP21 [3]; 70 °C
  raw CD: -5.958
  rel CD: 0.1409
OEP21 [3]; 70.5 °C
  raw CD: -5.84
  rel CD: 0.1352
OEP21 [3]; 71 °C
  raw CD: -5.586
  rel CD: 0.1232
OEP21 [3]; 71.5 °C
  raw CD: -5.682
  rel CD: 0.1277
OEP21 [3]; 72 °C
  raw CD: -5.192
  rel CD: 0.1044
OEP21 [3]; 73 °C
  raw CD: -5.167
  rel CD: 0.1032
OEP21 [3]; 74 °C
  raw CD: -4.493
  rel CD: 0.07111
OEP21 [3]; 74.5 °C
  raw CD: -4.638
  rel CD: 0.078
OEP21 [3]; 75 °C
  raw CD: -4.942
  rel CD: 0.09249
OEP21 [3]; 75.5 °C
  raw CD: -4.618
  rel CD: 0.07706
OEP21 [3]; 76 °C
  raw CD: -4.509
  rel CD: 0.07187
OEP21 [3]; 77 °C
  raw CD: -4.747
  rel CD: 0.0832
OEP21 [3]; 77.5 °C
  raw CD: -4.466
  rel CD: 0.06981
OEP21 [3]; 78 °C
  raw CD: -4.843
  rel CD: 0.08778
OEP21 [3]; 78.5 °C
  raw CD: -4.206
  rel CD: 0.05742
OEP21 [3]; 79 °C
  raw CD: -3.995
  rel CD: 0.0474
OEP21 [3]; 79.5 °C
  raw CD: -4.497
  rel CD: 0.07129
OEP21 [3]; 80 °C
  raw CD: -4.058
  rel CD: 0.05036
OEP21 [3]; 81 °C
  raw CD: -4.059
  rel CD: 0.05042
OEP21 [3]; 82 °C
  raw CD: -4.217
  rel CD: 0.05795
OEP21 [3]; 82.5 °C
  raw CD: -4.026
  rel CD: 0.04886
OEP21 [3]; 83 °C
  raw CD: -4.494
  rel CD: 0.07116
OEP21 [3]; 83.5 °C
  raw CD: -4.549
  rel CD: 0.07377
OEP21 [3]; 84 °C
  raw CD: -4.1838
  rel CD: 0.05637
OEP21 [3]; 85 °C
  raw CD: -3.693
  rel CD: 0.03299
OEP21 [3]; 86 °C
  raw CD: -3.539
  rel CD: 0.02569
OEP21 [3]; 87 °C
  raw CD: -3.736
  rel CD: 0.03505
OEP21 [3]; 87.5 °C
  raw CD: -3.636
  rel CD: 0.03029
OEP21 [3]; 88 °C
  raw CD: -3.641
  rel CD: 0.03053
OEP21 [3]; 88.5 °C
  raw CD: -3.975
  rel CD: 0.04642
OEP21 [3]; 89 °C
  raw CD: -3.567
  rel CD: 0.02702
OEP21 [3]; 90 °C
  raw CD: -3.821
  rel CD: 0.03908
OEP21 [3]; 90.5 °C
  raw CD: -3.627
  rel CD: 0.02984
OEP21 [3]; 91 °C
  raw CD: -4.011
  rel CD: 0.04814
OEP21 [3]; 91.5 °C
  raw CD: -3.609
  rel CD: 0.02901
OEP21 [3]; 92 °C
  raw CD: -3.4371
  rel CD: 0.02081
OEP21 [3]; 93 °C
  raw CD: -3.657
  rel CD: 0.03128
OEP21 [3]; 94 °C
  raw CD: -3.717
  rel CD: 0.03414
OEP21 [3]; 95 °C
  raw CD: -3.854
  rel CD: 0.04065
OEP21 [3]; 96 °C
  raw CD: -3.335
  rel CD: 0.01596
OEP21 [3]; 97 °C
  raw CD: -3.649
  rel CD: 0.0309
OEP21 [3]; 98 °C
  raw CD: -3.661
  rel CD: 0.03146
OEP21 [3]; 99 °C
  raw CD: -3.437
  rel CD: 0.0208
OEP21 [3]; 100 °C
  raw CD: -3.04
  rel CD: 0.001918
OEP21 [3]; OEP21 with 0.5 mM metabolite, CD at 215 nm, Apo 58.5
  Melting point: 59.2 ｡C
OEP21 [3]; OEP21 with 1 mM GAP
  Melting point: 60.2 ｡C

From publication PMC10279527, “Structural basis of metabolite transport by the chloroplast outer envelope channel OEP21” (Nature Structural & Molecular Biology, 2023)
